Experimental data published in patent publication US6342508B1, “N-hydroxy-2-(Alkyl,Aryl or Heteroaryl sulfanyl, sulfinyl or sulfonyl) 3-substituted alkyl, aryl or heteroarylamides as matrix metalloproteinase inhibitors” (American Cyanamid Company, priority 1997, dated 2002).
Where a name gives a salt, the structure may show the parent alone.

Row | melting point | SMILES
1 | 62 °C | COc1ccc(S(=O)(=O)C(CCC(C)C)(Cc2cccnc2)C(=O)NO)cc1 (stereo not drawn) (as salt: HCl) [Example 69, 2-(4-Methoxy-benzenesulfonyl)-5-methyl-2-pyridin-3-ylmethyl-hexanoic acid hydroxyamide]
2 | 175 °C | COc1ccc(CN2CCC(C(=O)NO)(S(=O)(=O)c3ccc(OC)cc3)CC2)cc1 (as salt: HCl) [Example 101, 4-(4-methoxy-benzenesulfonyl)-1-(4-methoxy-benzyl)-piperidine-4-carboxylic acid hydroxyamide]
3 | 206 °C | COc1ccc(CCN2CCC(C(=O)NO)(S(=O)(=O)c3ccc(OC)cc3)CC2)cc1 (as salt: HCl) [Example 102, 4-(4-methoxy-benzenesulfonyl)-1-[2-(4-methoxyphenyl)-ethyl]-piperidine-4-carboxylic acid hydroxyamide]
4 | 205 °C | COc1ccc(S(=O)(=O)C2(C(=O)NO)CCN(CCc3ccccc3)CC2)cc1 (as salt: HCl) [Example 103, 4-(4-methoxy-benzenesulfonyl)-1-(2-phenyl-ethyl)-piperidine-4-carboxylic acid hydroxyamide]
5 | 168 to 172 °C | COc1ccc(S(=O)(=O)C2(C(=O)NO)CCN(CCOc3ccccc3)CC2)cc1 (as salt: HCl) [Example 107, 4-(4-methoxy-benzenesulfonyl)-1-(2-phenoxy-ethyl)-piperidine-4-carboxylic acid hydroxyamide]
6 | 114 °C | COc1ccc(S(=O)(=O)C2(C(=O)NO)CCN(Cc3ccc(OCCN4CCCCC4)cc3)CC2)cc1 (as salt: HCl) [Example 109, 4-(4-Methoxy-benzenesulfonyl)-1-[4-(2-piperidin-1-yl-ethoxy)-benzyl]-piperidine-4-carboxylic acid hydroxyamide]
7 | 57 to 60 °C | COc1ccc(S(=O)(=O)C(Cc2cccnc2)(CC2CCCCC2)C(=O)NO)cc1 (stereo not drawn) (as salt: hydrochloride) [Example 65, 3-Cyclohexyl-N-hydroxy-2-(4-methoxy-benzenesulfonyl)2-pyridin-3-ylmethyl-propionamide]
8 | 98 °C | COc1ccc(S(=O)(=O)C(C)(Cc2ccc(OCCN3CCOCC3)cc2)C(=O)NO)cc1 (stereo not drawn) (as salt: hydrochloride) [Example 82, 2-(4-methoxy-benzenesulfonyl)-2-methyl-3-[4-(2-mopholinyl-ethoxy)-phenyl]-propionic hydroxyamide hydrochloride]
9 | 65 °C | CCCCCC#CCC(Cc1cccnc1)(C(=O)NO)S(=O)(=O)c1ccc(OC)cc1 (stereo not drawn) (as salt: salt) [Example 74, 2-(4-Methoxy-benzenesulfonyl)-2-pyridin-3-ylmethyl-dec-4-ynoic acid hydroxyamide]
10 | 190 °C | CC#CCC(Cc1cccnc1)(C(=O)NO)S(=O)(=O)c1ccc(F)cc1 (stereo not drawn) (as salt: salt) [Example 76, 2-(4-Fluoro-benzenesulfonyl)-2-pyridin-3-ylmethyl-hex-4-ynoic acid hydroxyamide]
11 | 180 to 182 °C | CCCCCC#CCC(Cc1cccnc1)(C(=O)NO)S(=O)(=O)c1ccc(F)cc1 (stereo not drawn) (as salt: salt) [Example 77, 2-(4-Fluoro-benzenesulfonyl)-2-pyridin-3-ylmethyl-dec-4-ynoic acid hydroxyamide]

Further lines, the compound ahead of its results:

Row | SMILES | melting point
12 | COc1ccc(S(=O)(=O)C(C)(Cc2ccc(OCCN(C(C)C)C(C)C)cc2)C(=O)NO)cc1 (stereo not drawn) (as salt: HCl) [Example 20, N-Hydroxy-2-(4-methoxy-benzenesulfonyl)-2-methyl-3-[4-(2-N,N-diisopropylamino-ethoxy)-phenyl]-propionamide] | 98 °C
13 | CCN(CC)CCOc1ccc(CC(C)(C(=O)NO)S(=O)(=O)c2ccc(OC)cc2)cc1 (stereo not drawn) (as salt: HCl) [Example 21, N-Hydroxy-2-(4-methoxy-benzenesulfonyl)-2-methyl-3-[4-(2-N,N-diethylamino-ethoxy)-phenyl]-propionamide] | 56 to 59 °C
14 | COc1ccc(S(=O)(=O)C(C)(Cc2ccc(OCCCN3CCN(c4cccc(Cl)c4)CC3)cc2)C(=O)NO)cc1 (stereo not drawn) (as salt: HCl) [Example 23, 3-(4-{3-[4-(3-Chloro-phenyl)-piperazin-1-yl]-propoxy}-phenyl)-N-hydroxy-2-(4-methoxy-benzenesulfonyl)-2-methyl-propionamide] | 122 °C
15 | CCCCOc1ccc(S(=O)(=O)C2(C(=O)NO)CCN(Cc3ccc(OC)cc3)CC2)cc1 (as salt: HCl) [Example 104, 4-(4-n-Butoxy-benzenesulfonyl)-1-(4-methoxy-benzyl)-piperidine-4-carboxylic acid hydroxyamide] | 173 °C
16 | CCCCOc1ccc(S(=O)(=O)C2(C(=O)NO)CCN(CCOc3ccccc3)CC2)cc1 (as salt: HCl) [Example 108, 4-(4-n-Butoxy-benzenesulfonyl)-1-(2-phenoxy-ethyl)-piperidine-4-carboxylic acid hydroxyamide] | 112 °C
17 | COc1ccc(SC(C)(Cc2ccccc2)C(=O)NO)cc1 (stereo not drawn) [Example 1, N-Hydroxy-2-(4-methoxy-phenylsulfanyl)-2-methyl-3-phenyl-propionamide] | 88 °C
18 | COc1ccc(SC(C(=O)NO)c2ccccc2)cc1 (stereo not drawn) [Example 2, N-Hydroxy-2-(4-methoxy-phenylsulfanyl)-2-phenyl-acetamide] | 155 °C
19 | COc1ccc(SC(C)(CC=C(C)C)C(=O)NO)cc1 (stereo not drawn) [Example 3, 2-(4-Methoxy-phenylsulfanyl)-2,5-dimethyl-hex-4-enoic acid hydroxyamide] | 89 °C
20 | COc1ccc(SC(C(=O)NO)C(C)C)cc1 (stereo not drawn) [Example 4, N-Hydroxy-2-(4methoxy-phenylsulfanyl)-3-methyl-butyramide] | 119 °C
21 | COc1ccc([S+]([O-])C(C)(CC=C(C)C)C(=O)NO)cc1 (stereo not drawn) [Example 6, 2-(4-Methoxy-benzenesulfinyl)-2,5-dimethyl-hex-4-enoic acid hydroxyamide] | 108 °C
22 | COc1ccc([S+]([O-])C(C(=O)NO)C(C)C)cc1 (stereo not drawn) [Example 7, N-Hydroxy-2-(4-methoxy-benzenesulfinyl)-3-methyl-butyramide] | 163 °C
23 | COc1ccc(S(=O)(=O)C(Cc2ccccc2)C(=O)NO)cc1 (stereo not drawn) [Example 9, N-Hydroxy-2-(4-methoxy-benzenesulfonyl)-3-phenyl-propionamide] | 180 °C
24 | CCCCC(C(=O)NO)S(=O)(=O)c1ccc(OC)cc1 (stereo not drawn) [Example 10, 2-(4-Methoxy-benzenesulfonyl)-hexanoic acid hydroxyamide] | 130 °C
25 | CCCCCCCCCCCCC(C(=O)NO)S(=O)(=O)c1ccc(OC)cc1 (stereo not drawn) [Example 11, 2-(4-Methoxy-benzenesulfonyl)-tetradecanoic hydroxyamide] | 114 °C
26 | COc1ccc(S(=O)(=O)C(C)(Cc2ccccc2)C(=O)NO)cc1 (stereo not drawn) [Example 12, N-Hydroxy-2-(4-methoxy-benzenesulfonyl)-2-methyl-3-phenyl-propionamide] | 58 °C
27 | COc1ccc(S(=O)(=O)C(C)(Cc2ccc(-c3ccccc3)cc2)C(=O)NO)cc1 (stereo not drawn) [Example 14, 3-(Biphenyl-4-yl)-N-hydroxy-2-(4-methoxy-benzenesulfonyl)-2-methyl-propionamide] | 177 °C
